Measured values as given in patent publication US8536166B2, “Inhibitors of Burton's tyrosine kinase” (Roche Palo Alto LLC, priority 2008, dated 2013).

Molecular target: Btk enzyme (His-tagged, full-length) (Homo sapiens (Human), UniProt Q06187)
Sequence (Q06187 whole entry): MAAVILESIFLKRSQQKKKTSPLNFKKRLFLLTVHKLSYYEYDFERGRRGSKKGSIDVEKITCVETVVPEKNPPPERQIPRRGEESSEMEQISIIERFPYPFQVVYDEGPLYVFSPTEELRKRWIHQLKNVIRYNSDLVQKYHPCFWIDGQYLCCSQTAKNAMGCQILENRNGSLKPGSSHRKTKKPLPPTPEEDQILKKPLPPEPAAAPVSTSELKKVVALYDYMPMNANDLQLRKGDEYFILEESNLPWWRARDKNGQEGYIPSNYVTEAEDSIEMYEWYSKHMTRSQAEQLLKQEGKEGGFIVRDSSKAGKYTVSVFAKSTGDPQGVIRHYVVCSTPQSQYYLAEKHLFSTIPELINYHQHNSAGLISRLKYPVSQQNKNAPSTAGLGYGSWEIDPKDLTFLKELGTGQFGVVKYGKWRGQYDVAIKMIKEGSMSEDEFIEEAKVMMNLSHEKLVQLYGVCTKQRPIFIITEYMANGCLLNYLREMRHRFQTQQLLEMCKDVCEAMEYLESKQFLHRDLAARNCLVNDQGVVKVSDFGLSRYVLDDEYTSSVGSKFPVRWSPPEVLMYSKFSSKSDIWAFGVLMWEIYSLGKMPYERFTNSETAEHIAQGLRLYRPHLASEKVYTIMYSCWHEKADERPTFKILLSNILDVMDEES
Test: Bruton's Tyrosine Kinase (Btk) Inhibition Assay
Type: biochemical
Conditions: 33P filtration capture assay, 100 μM ATP, 30 μM biotinylated peptide substrate
Source text: The assay is a capture of radioactive ^33P phosphorylated product through filtration. The interactions of Btk, biotinylated SH2 peptide substrate (Src homology), and ATP lead to phosphorylation of the peptide substrate. Biotinylated product is bound streptavidin sepharose beads. All bound, radiolabeled products are detected by scintillation counter.
Plates assayed are 96-well polypropylene (Greiner) and 96-well 1.2 μm hydrophilic PVDF filter plates (Millipore). Concentrations reported here are final assay concentrations: 10-100 μM compounds in DMSO (Burdick and Jackson), 5-10 nM Btk enzyme (His-tagged, full-length), 30 μM peptide substrate (Biotin-Aca-AAAEEIYGEI-NH2), 100 μM ATP (Sigma), 8 mM imidazole (Sigma, pH 7.2), 8 mM glycerol-2-phosphate (Sigma), 200 μM EGTA (Roche Diagnostics), 1 mM MnCl2 (Sigma), 20 mM MgCl2 (Sigma), 0.1 mg/ml BSA (Sigma), 2 mM DTT (Sigma), 1 μCi ^33P ATP (Amersham), 20% streptavidin sepharose beads (Amersham), 50 mM EDTA (Gibco), 2 M NaCl (Gibco), 2 M NaCl w/1% phosphoric acid (Gibco), microscint-20 (Perkin Elmer).
IC50 determinations are calculated from 10 data points per compound utilizing data produced from a standard 96-well plate assay template. One control compound and seven unknown inhibitors were tested on each plate and each plate was run twice. Typically, compounds were diluted in half-log starting at 100 μM and ending at 3 nM. The control compound was staurosporine. Background was counted in the absence of peptide substrate. Total activity was determined in the presence of peptide substrate. The following protocol was used to determine Btk inhibition. • 1) Sample preparation: The test compounds were diluted at half-log increments in assay buffer (imidazole, glycerol-2-phosphate, EGTA, MnCl2, MgCl2, BSA). • 2) Bead preparation • a.) rinse beads by centrifuging at 500 g • b.) reconstitute the beads with PBS and EDTA to produce a 20% bead slurry • 3) Pre-incubate reaction mix without substrate (assay buffer, DTT, ATP, ^33P ATP) and mix with substrate (assay buffer, DTT, ATP, ^33P ATP, peptide substrate) 30° C. for 15 mm. • 4) To start assay, pre-incubate 10 μL Btk in enzyme buffer (imidazole, glycerol-2-phosphate, BSA) and 10 μL of test compounds for 10 min at RT. • 5) Add 30 μL reaction mixture without or with substrate to Btk and compounds. • 6) Incubate 50 μL total assay mix for 30 min at 30° C. • 7) Transfer 40 μL of assay to 150 μL bead slurry in filter plate to stop reaction. • 8) Wash filter plate after 30 min, with following steps • a. 3×250 μL NaCl • b. 3×250 μL NaCl containing 1% phosphoric acid • c. […]
Work on `CN(C)C(=O)c1ccc(Nc2nc(-c3cccc(N4CCc5cc(C6CC6)ccc5C4=O)c3CO)cn(C)c2=O)cc1` [II-6, 4-{6-[3-(6-Cyclopropyl-1-oxo-3,4-dihydro-1H-isoquinolin-2-yl)-2-hydroxymethyl-phenyl]-4-methyl-3-oxo-3,4-dihydro-pyrazin-2-ylamino}-N,N-dimethyl-benzamide] yielded an IC50 of 15 nM.
Compound `Cn1cc(Nc2nc(-c3cccc(N4CCc5cc(C6CC6)ccc5C4=O)c3CO)cn(C)c2=O)cn1` [II-5, 6-Cyclopropyl-2-{2-hydroxymethyl-3-[4-methyl-6-(1-methyl-1H-pyrazol-4-ylamino)-5-oxo-4,5-dihydro-pyrazin-2-yl]-phenyl}-3,4-dihydro-2H-isoquinolin-1-one] has an IC50 of 16 nM.
Compound `Cn1cc(-c2cccc(N3CCc4cc(C5CC5)ccc4C3=O)c2CO)nc(Nc2ccc(C(=O)N3CCC(O)CC3)cc2)c1=O` [II-12, 6-Cyclopropyl-2-(2-hydroxymethyl-3-{6-[4-(4-hydroxy-piperidine-1-carbonyl)-phenylamino]-4-methyl-5-oxo-4,5-dihydro-pyrazin-2-yl}-phenyl)-3,4-dihydro-2H-isoquinolin-1-one] has an IC50 of 10 nM.
In the case of `Cn1cc(-c2cccc(N3CCc4cc(C5(F)CC5)ccc4C3=O)c2CO)nc(Nc2ccc(C(=O)N3CCOCC3)cc2)c1=O` [II-11, 6-(1-Fluoro-cyclopropyl)-2-(2-hydroxymethyl-3-{4-methyl-6-[4-(morpholine-4-carbonyl)-phenylamino]-5-oxo-4,5-dihydro-pyrazin-2-yl}-phenyl)-3,4-dihydro-2H-isoquinolin-1-one], the IC50 is reported as 10 nM.

System: not given
Test: not given
Conditions: not given
Compound `CN1CCN(C(=O)c2ccc(Nc3nc(-c4cccc(N5CCc6cc(C7CC7)ccc6C5=O)c4CO)cn(C)c3=O)cc2)CC1` [II-14, 6-Cyclopropyl-2-(2-hydroxymethyl-3-{4-methyl-6-[4-(4-methyl-piperazine-1-carbonyl)-phenylamino]-5-oxo-4,5-dihydro-pyrazin-2-yl}-phenyl)-3,4-dihydro-2H-isoquinolin-1-one] has a melting point of 172 to 175 °C.
Compound `Cn1cc(-c2cccc(N3CCc4cc(C5CC5)ccc4C3=O)c2CO)nc(Nc2ccc(C(=O)N3CCCC3)cc2)c1=O` [II-10, 6-Cyclopropyl-2-(2-hydroxymethyl-3-{4-methyl-5-oxo-6-[4-(pyrrolidine-1-carbonyl)-phenylamino]-4,5-dihydro-pyrazin-2-yl}-phenyl)-3,4-dihydro-2H-isoquinolin-1-one] has a melting point of 178 to 180 °C.
Work on `CN(C)c1ccc2c(c1)CCN(c1cccc(-c3cn(C)c(=O)c(Nc4ccc5c(c4)OC(F)(F)O5)n3)c1CO)C2=O` [II-1, 2-{3-[6-(2,2-Difluoro-benzo[1,3]dioxol-5-ylamino)-4-methyl-5-oxo-4,5-dihydro-pyrazin-2-yl]-2-hydroxymethyl-phenyl}-6-dimethylamino-3,4-dihydro-2H-isoquinolin-1-one] yielded a melting point of 145 to 150 °C.
`CN(CCO)C(=O)c1ccc(Nc2nc(-c3cccc(N4CCc5cc(C6CC6)ccc5C4=O)c3CO)cn(C)c2=O)cc1` [II-15, 4-{6-[3-(6-Cyclopropyl-1-oxo-3,4-dihydro-1H-isoquinolin-2-yl)-2-hydroxymethyl-phenyl]-4-methyl-3-oxo-3,4-dihydro-pyrazin-2-ylamino}-N-(2-hydroxy-ethyl)-N-methyl-benzamide] showed a melting point of 115 to 117 °C.
Work on `CC1CN(C(=O)c2ccc(Nc3nc(-c4cccc(N5CCc6cc(C7CC7)ccc6C5=O)c4CO)cn(C)c3=O)cc2)CC(C)O1` (centres unmarked) [II-17, 6-Cyclopropyl-2-(3-{6-[4-(2,6-dimethyl-morpholine-4-carbonyl)-phenylamino]-4-methyl-5-oxo-4,5-dihydro-pyrazin-2-yl}-2-hydroxymethyl-phenyl)-3,4-dihydro-2H-isoquinolin-1-one] yielded a melting point of 173 to 175 °C.
`Cn1cc(-c2cccc(N3CCc4cc(C5CC5)ccc4C3=O)c2CO)nc(Nc2ccc(C(=O)N3CCC(O)CC3)cc2)c1=O` [II-12, 6-Cyclopropyl-2-(2-hydroxymethyl-3-{6-[4-(4-hydroxy-piperidine-1-carbonyl)-phenylamino]-4-methyl-5-oxo-4,5-dihydro-pyrazin-2-yl}-phenyl)-3,4-dihydro-2H-isoquinolin-1-one] gave a melting point of 171 to 173 °C.
`Cn1cc(-c2cccc(N3CCc4cc(C5CC5)ccc4C3=O)c2CO)nc(Nc2ccc(C(=O)N3CCN(CCO)CC3)cc2)c1=O` [II-16, 6-Cyclopropyl-2-[3-(6-{4-[4-(2-hydroxy-ethyl)-piperazine-1-carbonyl]-phenylamino}-4-methyl-5-oxo-4,5-dihydro-pyrazin-2-yl)-2-hydroxymethyl-phenyl]-3,4-dihydro-2H-isoquinolin-1-one] showed a melting point of 175 to 180.1 °C.
For `Cn1cc(-c2cccc(N3CCc4cc(C5(F)CC5)ccc4C3=O)c2CO)nc(Nc2ccc(C(=O)N3CCOCC3)cc2)c1=O` [II-11, 6-(1-Fluoro-cyclopropyl)-2-(2-hydroxymethyl-3-{4-methyl-6-[4-(morpholine-4-carbonyl)-phenylamino]-5-oxo-4,5-dihydro-pyrazin-2-yl}-phenyl)-3,4-dihydro-2H-isoquinolin-1-one], the melting point was 172 to 174 °C.
For `COC1CCN(C(=O)c2ccc(Nc3nc(-c4cccc(N5CCc6cc(C7CC7)ccc6C5=O)c4CO)cn(C)c3=O)cc2)CC1` [II-13, 6-Cyclopropyl-2-(2-hydroxymethyl-3-{6-[4-(4-methoxy-piperidine-1-carbonyl)-phenylamino]-4-methyl-5-oxo-4,5-dihydro-pyrazin-2-yl}-phenyl)-3,4-dihydro-2H-isoquinolin-1-one], the melting point was 146 to 148 °C.
With `CCN1CCN(C(=O)c2ccc(Nc3nc(-c4cccc(N5CCc6cc(C7CC7)ccc6C5=O)c4CO)cn(C)c3=O)cc2)CC1` [II-20, 6-Cyclopropyl-2-(3-{6-[4-(4-ethyl-piperazine-1-carbonyl)-phenylamino]-4-methyl-5-oxo-4,5-dihydro-pyrazin-2-yl}-2-hydroxymethyl-phenyl)-3,4-dihydro-2H-isoquinolin-1-one] the melting point was 153 to 155 °C.
